Converted amounts (≈) assume the structure as drawn. “And” between values parts separate entries of the source, which are not always exact repeats. Equal entries are not always repeated.
Tests used:
Assay in all cases: Antimicrobial assay (MIC, microtiter broth dilution)
Type in all cases: cell-based
[1] = system: S. aureus; conditions: for MIC Staph: Table VI; for MIC S. aureus: Table I, S. aureus ATCC 25923
Experimental: (§1) The procedure for the antimicrobial assay is based upon the guidelines of the National Committee for Clinical Laboratory Standards, Document M7-T2, Volume 8, No. 8, 1988.
(§2) 1-5×10^5 CFUs/ml of either S. aureus ATCC 25923, E. coli ATCC 25922, P. aeruginosa ATCC 27853, or C. albicans were added to the wells in full strength Mueller Hinton broth (BBL 11443) from a mid-log culture. The inoculum is standardized spectrophotometrically at 600 nm and is verified by colony counts. The plates are incubated for 16-20 hours at 37° C., and the minimal inhibitory concentrations (MIC) for the compounds are determined. Minimal inhibitory concentration is defined as the lowest concentration of amino acid or peptide which produces a clear well in the microtiter plate.

[2] = system: P. aeruginosa; conditions: for MIC Psuedo: Table VI; for MIC P aeruginosa: Table I, P. aeruginosa ATCC 27853
Experimental: as §1, §2

[3] = system: C. albicans; conditions: for MIC Candida: Table VI; for MIC C. albicans: Table I
Experimental: as §1, §2

[4] = system: E. coli
Experimental: as §1, §2

Compound | MIC Staph [1] | MIC Psuedo [2] | MIC Candida [3] | MIC E. coli ([4]; Table VI) | MIC S. aureus [1] | MIC P aeruginosa [2] | MIC C. albicans [3] | MIC E. coli ([4]; Table I, E. coli ATCC 25922)
CCCCCCCCN(CCCCCCCC)C(=O)CCNC(=O)CC(O)CNC(=N)N (stereo not drawn) [Compound 87, γ-Guanidino-β-hydroxy butyryl-β-Ala-dioctylamide] | 2 mg/L (≈ 4.39 µM) | 16 mg/L (≈ 35.1 µM) | 0.5 mg/L (≈ 1.1 µM) | 4 mg/L (≈ 8.78 µM) | – | – | – | –
NC(N)=NCCCC(N)C(=O)NCCCCCCCCCCCCNC(=O)C(N)CCCN=C(N)N (centres unmarked) [Compound 8, 1,12-[di-arginyl]diaminododecane] | – | – | – | – | 128 mg/L (≈ 250 µM) | > 256 mg/L | > 256 mg/L | > 256 mg/L
NC(N)=NCCCC(N)C(=O)Nc1ccc(C=Cc2ccc(NC(=O)C(N)CCCN=C(N)N)cc2)cc1 (centres unmarked) [Compound 49, 4,4'-[Di-Arg] diaminostilbene] | 8 mg/L (≈ 15.3 µM) | 128 mg/L (≈ 245 µM) | 64 mg/L (≈ 122 µM) | 256 mg/L (≈ 490 µM) | – | – | – | –
CCCCCCCCN(CCCCCCCC)C(=O)C(N)Cc1ccccc1 (centres unmarked) [Compound 81, Phe-dioctylamide] | 4 mg/L (≈ 10.3 µM) | > 256 mg/L | > 256 mg/L | > 256 mg/L | – | – | – | –
CCCCCCCCCCCCNC(=O)c1ccc(CNC(=N)N)cc1 [Compound 38, P-Guanidino-methyl-benzoyl-dodecylamide] | 1 to 2 mg/L | 64 mg/L (≈ 178 µM) | 4 mg/L (≈ 11.1 µM) | 16 mg/L (≈ 44.4 µM) | – | – | – | –
N-α-amidino phenylalanyl hexadecylamide [Compound 34] | – | – | – | – | 32 mg/L | > 256 mg/L | 64 mg/L | > 256 mg/L
N=C(N)NC(Cc1ccccc1)C(=O)NC12CC3CC(CC(C3)C1)C2 (stereo not drawn) [Compound 76, N^α -Amidino-Phe-adamantanamide] | 16 mg/L (≈ 47 µM) | 256 mg/L (≈ 752 µM) | 128 mg/L (≈ 376 µM) | 256 mg/L (≈ 752 µM) | – | – | – | –
N^α -Amidino-Phe-didecylamide [Compound 69] | – | > 256 mg/L and 256 mg/L | 32 mg/L and 64 mg/L | 16 mg/L | – | – | – | –
N-α-amidino phenylalanyl tetradecylamide [Compound 33] | – | – | – | – | 8 mg/L | > 256 mg/L | 16 mg/L | 128 mg/L
CCCCCCCCN(CCCCCCCC)C(=O)C(CC1CCCCC1)NC(=N)N (stereo not drawn) [Compound 74, N^α -Amidino-Cha-dioctylamide] | 2 mg/L (≈ 4.58 µM) | > 256 mg/L | 2 mg/L (≈ 4.58 µM) | > 256 mg/L | – | – | – | –
CCCCCCCNC(=O)C(Cc1ccc(C(=N)N)cc1)NC(=N)N (stereo not drawn) [Compound 29, p-guanyl-N-α-amidino-phenylalanyl heptylamide] | – | – | – | – | 64 mg/L (≈ 185 µM) | > 256 mg/L | 256 mg/L (≈ 739 µM) | > 256 mg/L
CCCCCCCCN(CCCCCCCC)C(=O)C(Cc1ccc2ccccc2c1)N=C(N)N (stereo not drawn) [Compound 73, N^α -Amidino-β-Nal-dioctylamide] | 4 mg/L (≈ 8.32 µM) | > 256 mg/L | 4 mg/L (≈ 8.32 µM) | > 256 mg/L | – | – | – | –
